Data set [1] is described as follows: Cytotoxicity against african green monkey Vero E6 cells assessed as inhibition of cell growth incubated for 4 days by MTS assay. The data set is classed as toxicity, cell-based, Vero C1008. The following applies: chlorocebus sabaeus, time 4 day. A general note: Tetrazolium dyes change colour on reduction, which living cells bring about.
Data set [2] concerns SARS-CoV-2. The data set can be described thus: Antiviral activity against SARS-CoV-2 infected in african green monkey Vero E6 cells pretreated for 1 hrs followed by viral infection for 2 days post treatment by qRT-PCR. Type of data set: functional, organism-based, Severe acute respiratory syndrome coronavirus 2. Background: Real-time PCR tracks product formation cycle by cycle.

In data set [3] the test system is SARS-CoV-2. The data set can be described thus: Antiviral activity against SARS-CoV-2 infected in african green monkey Vero E6 cells assessed as reduction in viral yield at 20 uM incubated for 48 hrs post infection by qRT-PCR relative to control. More on the design: scale not given: the % may be the effect or the level left. The data set is classed as functional, Severe acute respiratory syndrome coronavirus 2.

In data set [4] the test system is SARS-CoV-2. The data set can be described thus: Antiviral activity against SARS-CoV-2 infected in human Calu-3 cells pretreated for 1 hrs followed by viral infection for 2 days post treatment by qRT-PCR. Type of data set: functional, organism-based. Particulars: Severe acute respiratory syndrome coronavirus 2, Calu-3.
A short description of data set [5]: Cytotoxicity against human Calu-3 cells assessed as inhibition of cell growth incubated for 4 days by MTS assay. Type of data set: toxicity, cell-based. Particulars: time 4 day.
Data set [6] deals with SARS-CoV-2. The data set can be described thus: Antiviral activity against SARS-CoV-2 infected in african green monkey Vero E6 cells assessed as reduction in viral replication. Type of data set: functional, organism-based. The following applies: Severe acute respiratory syndrome coronavirus 2, Vero C1008.
The nature of data set [7]: Cytotoxicity against african green monkey Vero E6 cells assessed as inhibition of cell growth by CCK-8 assay. Particulars: chlorocebus sabaeus. The data set is classed as toxicity, cell-based, Vero C1008.
Data set [8] relates to SARS-CoV-2. In words: Antiviral activity against SARS-CoV-2 WA1/2020 infected in african green monkey Vero E6 cells preincubated for 24 hrs followed by viral infection and measured after 5 day post infection by cytopathic effect assay. Type of data set: functional. The following applies: Severe acute respiratory syndrome coronavirus 2, WA1/2020, Vero C1008, 144 h; time 6 day.

Data set [9] can be described thus: Selectivity index, ratio of CC50 for african green monkey Vero 76 cells to EC90 for SARS-CoV-2 infected in African Green monkey Vero 76 cells assessed as reduction in cytopathic effect. The data set is classed as toxicity, cell-based. The following applies: read-out: Selectivity Index. (In general: Cytopathic effects are the visible damage that an infection or toxin causes in cultured cells.)

Data set [10] relates to SARS-CoV-2. In words: Antiviral activity against SARS-CoV-2 WA1/2020 infected in african green monkey Vero 76 cells preincubated for 24 hrs followed by viral infection and measured after 3 day post infection by viral yield reduction assay. Type of data set: functional. Particulars: Severe acute respiratory syndrome coronavirus 2, WA1/2020, Vero 76, 96 h; time 4 day.
Data set [11] in a line: Selectivity index, ratio of CC50 for african green monkey Vero 76 cells to EC90 for SARS-CoV-2 infected in African Green monkey Vero 76 cells. The data set is classed as toxicity, cell-based. The following applies: read-out: Selectivity Index.
Data set [12] deals with SARS-CoV-2. The data set can be described thus: Antiviral activity against SARS-CoV-2 WA1/2020 infected in human Caco-2 cells preincubated for 24 hrs followed by viral infection and measured after 3 day post infection by viral yield reduction assay. Type of data set: functional. The following applies: Severe acute respiratory syndrome coronavirus 2, WA1/2020, Caco-2, 96 h; time 4 day.

The nature of data set [13]: Cytotoxicity against human Caco-2 cells assessed as cell growth inhibition by neutral red cytopathic assay. The data set is classed as toxicity, cell-based.
Data set [14] is described as follows: Cytotoxicity against african green monkey Vero 76 cells assessed as cell growth inhibition by neutral red cytopathic assay. The data set is classed as toxicity, cell-based. The following applies: chlorocebus sabaeus.
A short description of data set [15]: Selectivity index, ratio of CC50 for human Calu-3 cells to EC90 for SARS-CoV-2 infected in human Calu-3 cells. The data set is classed as toxicity, cell-based. The following applies: read-out: Selectivity Index.
For data set [16], the system named is SARS-CoV-2. In words: Antiviral activity against SARS-CoV-2 WA1/2020 infected in human Calu-3 cells preincubated for 2 hrs followed by viral infection and measured after 48 hrs by microscopy analysis. Type of data set: functional, organism-based. Particulars: Severe acute respiratory syndrome coronavirus 2, WA1/2020, Calu-3.
Data set [17] is described as follows: Selectivity index, ratio of CC50 for human Caco-2 cells to EC90 for SARS-CoV-2 infected in human Caco-2 cells. Type of data set: toxicity, cell-based. The following applies: read-out: Selectivity Index.
The nature of data set [18]: Cytotoxicity against human Calu-3 cells assessed as cell growth inhibition by neutral red cytopathic assay. Type of data set: toxicity, cell-based.
The nature of data set [19]: Cytotoxicity against HEK293T cells assessed as cell growth inhibition incubated for 24 hrs by CCK-8 assay. Type of data set: toxicity, cell-based, HEK-293T. The following applies: human.
Data set [20] addresses Replicase polyprotein 1ab (Severe acute respiratory syndrome coronavirus 2) (UniProt P0DTD1). The data set can be described thus: Inhibition of SARS-CoV-2 RdRp transfected in HEK293T cells at 10 microM incubated for 24 hrs by Gluc-Activity assay relative to control. The data set is classed as cell-based.
Data set [21] in a line: Therapeutic index, ratio of CC50 for HEK293T cells to EC50 for inhibition of SARS-CoV-2 RdRp. Type of data set: toxicity. Particulars: human, read-out: TI.
The subject of data set [22] is SARS-CoV-2. The data set can be described thus: Antiviral activity against wild type SARS-CoV-2 infected in human Calu-3 cells of organoid assessed as intracellular viral RNA level measured after 48 hrs by qRT-PCR analysis. Type of data set: functional, organism-based. Particulars: Severe acute respiratory syndrome coronavirus 2, Calu-3, 48 h.
The nature of data set [23]: Cytotoxicity against human Calu-3 cells assessed as cell growth inhibition incubated for 4 hrs by XTT assay. The data set is classed as toxicity, cell-based.
Data set [24] has as its system SARS-CoV-2. In words: Antiviral activity against SARS-CoV-2 infected in human Calu-3 cells assessed as reduction in viral yield incubated for 48 hrs by RT-PCR. The data set is classed as functional, organism-based. The following applies: Severe acute respiratory syndrome coronavirus 2, Calu-3, 48 h.
The nature of data set [25]: Selectivity index, ratio of CC50 for african green monkey Vero E6 cells to EC50 for SARS-CoV-2 infected in African Green monkey Vero E6 cells. Type of data set: toxicity, cell-based, Vero C1008. Particulars: read-out: Selectivity Index.
A short description of a further data set: in vitro. The following applies: human, Calu-3 cells.

Molecules are shown by their SMILES.

This is an account of results in ChEMBL document CHEMBL5360552, “Potential RNA-dependent RNA polymerase (RdRp) inhibitors as prospective drug candidates for SARS-CoV-2” (Eur J Med Chem, 2023).

Description for in vitro: Selectivity index, ratio of CC50 for human Calu-3 cells to EC50 for SARS-CoV-2 infected in human Calu-3

`O=c1cc(-c2ccccc2)oc2cc(O)c(O)c(O)c12` [BAICALEIN]: the values for the CC50 at 96 h in data set [1] and in data set [5] were 8.6 µM and 91 µM, respectively. Also, the EC90 in the data set on SARS-CoV-2 [2] (Severe acute respiratory syndrome coronavirus 2, Vero C1008, 48 h, time 2 day) came to 7.6 µM. Further, the Activity in the data set on SARS-CoV-2 [3] was found to be 99.8%. Further, in the data set with SARS-CoV-2 [4], the EC50 stood at 1.2 µM.
With `CCC(CC)COC(=O)[C@H](C)N[P@](=O)(OC[C@H]1O[C@@](C#N)(c2ccc3c(N)ncnn23)[C@H](O)[C@@H]1O)Oc1ccccc1`, the IC50 in the data set with SARS-CoV-2 [6] stood at 7.18 µM. In [7], the CC50 was over 100 µM.
In the case of `Nc1ncnc2c([C@@H]3N[C@H](CO)[C@@H](O)[C@H]3O)c[nH]c12`, the EC90 in the data set on SARS-CoV-2 [8] was 50.3 µM; with SARS-CoV-2 [10], 10.9 µM; in the data set with SARS-CoV-2 [12], 14.2 µM. In addition, the selectivity ratio is 5.8 in data set [9], over 27 in data set [11], over 3.5 in [15] and 5.8 in data set [17]. In addition, the results for the CC50 in data set [13], in data set [14] and in data set [18] were 82.8 µM, over 296 µM and over 50 µM, respectively. Also, the EC50 with SARS-CoV-2 [16] turned out to be 14.2 µM.
On to `CC(C)(C)OC(=O)N1CCN(c2ccc3cccc(OCC(=O)NCc4ccccc4)c3n2)CC1`, for which the cytotoxic concentration (CC50) at 24 h in [19] amounted to 70.8 µM. This compound also registered an inhibition in data set [20] of 95%. In [21], the selectivity ratio was found to be 65.5.
Turning to `CC(C)C(=O)OC[C@H]1O[C@@H](n2cc/c(=N\O)[nH]c2=O)[C@H](O)[C@@H]1O` [MOLNUPIRAVIR], the IC50 in the data set with SARS-CoV-2 [22] is 1.97 µM.
With `CC(C)(C)OC(=O)N[C@@H]1CCN(c2ccc3cccc(OCC(=O)NCc4ccccc4)c3n2)C1`, the CC50 at 24 h in data set [19] stood at 79.4 µM. In [20], this compound displayed an inhibition of 74.9%. In addition, the selectivity ratio in data set [21] is 20.3.
In the case of `Cc1cccc(C)c1OCC(=O)N[C@@H](Cc1ccccc1)[C@@H](O)C[C@H](Cc1ccccc1)NC(=O)[C@H](C(C)C)N1CCCNC1=O` [LOPINAVIR], the IC50 in the data set with SARS-CoV-2 [6] was 11.5 µM.
For the compound `CC(C)(C)OC(=O)N[C@H]1CCN(c2ccc3cccc(OCC(=O)NCc4ccccc4)c3n2)C1`, the CC50 at 24 h in [19] came to 72.4 µM. The inhibition in [20] came to 92.8%. Also, the selectivity ratio in data set [21] amounted to 34.8.
Consider `O=C(O)[C@H]1O[C@@H](Oc2cc3oc(-c4ccccc4)cc(=O)c3c(O)c2O)[C@H](O)[C@@H](O)[C@@H]1O` [BAICALIN], for which the CC50 at 96 h in data set [1] and in [5] was over 100 µM in each case. Moreover, the EC50 in the data set with SARS-CoV-2 [2] (Severe acute respiratory syndrome coronavirus 2, Vero C1008) worked out at 9 µM; in the data set on SARS-CoV-2 [4], 8 µM. Besides, the Activity in the data set on SARS-CoV-2 [3] is reported as 98%.
For `CCN(CC)CCCC(C)Nc1ccnc2cc(Cl)ccc12` (stereo not given) [CHLOROQUINE], in the data set on SARS-CoV-2 [6], the IC50 turned out to be 11.6 µM.
As to `CC(C)OC(=O)[C@H](C)N[P@](=O)(OC[C@H]1O[C@@H](n2ccc(=O)[nH]c2=O)[C@](C)(F)[C@@H]1O)Oc1ccccc1` [SOFOSBUVIR], in data set [23], the CC50 at 4 h was determined as 512 µM. Besides, in the data set with SARS-CoV-2 [24], the EC50 is 7.3 µM.
For `COC(=O)N[C@H](C(=O)N1CCC[C@H]1c1ncc(-c2ccc(-c3ccc(-c4cnc([C@@H]5CCCN5C(=O)[C@@H](NC(=O)OC)C(C)C)[nH]4)cc3)cc2)[nH]1)C(C)C`, the CC50 at 4 h in data set [23] worked out at 38 µM. Moreover, the EC50 in the data set on SARS-CoV-2 [24] was 1.1 µM.
Take `NC(=O)c1nc(F)c[nH]c1=O`: the selectivity ratio in [25] amounted to 6.46. Further, the CC50 in data set [7] is over 400 µM.
Turning to `COc1ccc(-c2cc(=O)c3c(O)cc(O)c(-c4cc(-c5cc(=O)c6c(O)cc(O)cc6o5)ccc4OC)c3o2)cc1` [ISOGINKGETIN], the IC50 in the data set on SARS-CoV-2 [6] stood at 22.8 µM.
For the compound `NC(=O)c1ncn([C@@H]2O[C@H](CO)[C@@H](O)[C@H]2O)n1` [RIBAVIRIN], the CC50 at 4 h in data set [23] is 160 µM. Besides, the EC50 with SARS-CoV-2 [24] was 7.1 µM. For the same compound, the selectivity ratio in the data set “in vitro” was 16.

Usually CC50 stands for the concentration at which the toxic effect on the cells reaches its halfway point. In general, EC90 refers to the point of the concentration-response curve where the effect stands at 90%. Broadly, the EC50 is the concentration that produces a half-maximal response. In general, IC50 refers to the midpoint of a concentration-inhibition curve. The term inhibition denotes the change of the read-out against control, counted positive when it falls.
